# In patent US20150038575A1, “MELANOGENESIS-INHIBITORY CONSTITUENTS OF Ligusticum sinense” (priority 2013, published 2015):
# Assays:
# tyrosinase = assay: Assay of tyrosinase activity (L-tyrosine substrate, absorbance at 475 nm); assay type: biochemical; details: mushroom tyrosinase, pH 6.8, 37° C.
# Protocol: The source of the tested tyrosinase was from mushroom, and the substrate of the tyrosinase was L-tyrosine. The experiment was performed by the method below. First, 40 μL of pH 6.8 phosphate buffer solution, 40 μL of various sample solution (samples in 0.07M pH6.8 phosphate buffer solution containing 0.1 vol % of DMSO), and 40 μL of tyrosinase (250 unit/mL, dissolved in pH 6.8 phosphate buffer solution at a concentration of 0.07 M) were sequentially and respectively added into 96-wells plate. The sample solutions above respectively contain the compounds II, III, and kojic acid. The group added with the sample solution containing kojic acid was used as positive control (PC). A group without adding the sample solution was used as control (C). The mixtures described above were thermostat at 37° C. for 10 minutes. Then, 80 μL of tyrosine solutions (0.4 mg/mL, dissolved in 0.07M pH6.8 phosphate buffer solution) were respectively added into each mixture and thermostat for another 20 minutes to perform reaction. The amount of the obtained product L-DOPA of each mixture was measured at 475 nm to get absorbance of each sample. Therefore, the tyrosinase activity was calculated by the formula below. Tyrosinase activity(%)=[(A−B)/(C−D)]×100 The symbol A above is the absorbance of groups containing a sample and tyrosinase. The symbol B above is the absorbance of groups containing a sample but not tyrosinase. The symbol C above is the absorbance of groups containing tyrosinase but not a sample.
# [1] = test system: B16-F10 murine melanoma cells; assay: Viability test of B16-F10 murine melanoma cells (MTT assay); assay type: cell-based; details: 72 hours; for cell viability: FIG. 8A
# Protocol: In this test, B16-F10 murine melanoma cells (BCRC No. 60031) were used.
# First, the B16-F10 murine melanoma cells were cultured in Dulbecco's Modified Eagle's Medium (abbreviated as DMEM, which contains 90% (v/v) DMEM, 10% (v/v) fetal bovine serum), and additionally added 1% (v/v) Penicillin-Streptomycin Solution. Then, the cells in the mediums were incubated under 5% CO2/air at 37° C. in 70% of humidity. The medium was exchanged every two days. When the cells grew to a density of 80-90%, the cells were treated by trypsin to desorb the cells from the walls of containers Next, haemocytometer (Neubauer Improved., Marienfeld, Germany) was used to count the number of the cells. Proper amount of cells were then transplanted into cell culture plates to prepare for cell viability tests.
# Cell viability rate was determined by MTT assay. MTT assay was performed by using […] in the mitochondria of living cells to reduce yellow 3-(4,5-dimethylthiazol-2-yl)-2,5-diphenyl tetrazolium bromide (MTT) to purple formazan product. Therefore, the amount of the purple formazan product is proportional to the number of the living cells and thus can be determined by spectrophotomter.
# In a 12-wells cell plate, 1×10^3 cells were implanted into each well and stayed for 24 hours to let the cells attach to the wail of the well. Then, the compounds I, II, Ill and arbutin (positive control; PC) were respectively added into each wells and cultured for 72 hours. Next, MTT dye (Applichem Co., Denmark) dissolved in 0.5 mg/ml PBS solution was added to each well to react for 2 hours. The obtained purple formazan product was dissolved in 400 μL of DMSO, and then the absorbance of the purple DMSO solution was analyzed by microplate reader to get the absorbance at 570 nm. The cell viability rate was determined by the formula below.
# Cell viability rate (%)=(Absorbance of test group/absorbance of blank group)×100%
# [2] = test system: B16-F10 murine melanoma cells; assay: Analysis of melanin content in B16-F10 murine melanoma cells (α-MSH stimulated); assay type: cell-based; details: for melanin content in the melanoma cells: B16-F10 cells, 25, 50 and 100 μM, FIG. 8B; for melanin content in the melanoma cells / IC50: 100 nM α-MSH, 72 hours; for IC50: Mus musculus, B16-F10 cells, read-out: IC50 for inhibiting the melanogenesis; for inhibitory activity of melanogenesis: summary statement on the isolated compounds
# Protocol: The melanin content in B16-F10 murine melanoma cells was analyzed by a modified Hosoi method disclosed in 1985 (Hosoi J, Abe E, Suda T, Kuroki T, Regulation of melanin synthesis of B16 mouse melanoma cells by 1 alpha, 25-dihydroxyvitamin D3 and retinoic acid. Cancer Res. 1985; 45(4):1474-8).
# First, in a 12-wells cell plate, 1×10^3 cells were implanted into each well and stayed for 24 hours to let the cells attach to the wall of the well. Various concentrations (25, 50, and 100 μM) of the compounds I, II, III, and arbutin (positive control; PC) were respectively added into each wells, and 100 nM of α-melanocyte stimulating hormone (α-MSH) was subsequently adaded. The cells were cultured for 72 hours. After the treatment above, cells were washed by PBS, and then treated by trypsin to desorb the cells. 150 μL of 1N NaOH solution containing 10% DMSO was then added and heated in a 80° C. water bath for 1 hour. After cooling to room temperature, the samples were centrifuge at 5000 rpm for 10 minutes. The upper solution was transferred into a 96-wells plate and analyzed by a microplate reader at 405 nm. The absorbance at 405 nm for each sample was read to calculate the melanin content of each sample.
# [3] = test system: NHEKs in Leiden epidermal models (LEMs); assay: Viability test of human epidermal skin equivalents (Leiden epidermal models, MTT); assay type: cell-based; details: 24 hours exposure
# Protocol: In this test, fresh mamma reduction surplus skin of a single individual (D002, Fitzpatrick skin type I/II) was used for isolation of normal human epidermal keratinocytes (NHEKs).
# Leiden epidermal models (LEMs) were generated by seeding NHEKs on an inert filter insert. The NHEKs in LEMS were incubated overnight under submerged conditions in keratinocyte medium. Within four days, fetal bovine serum was gradually omitted and the NHEKs in LEMs were cultured serum-free at the air-liquid interface for 7 days, while culture medium was refreshed twice a week.
# Viability assays were performed by adding 0,5 mL of 1 mg/mL MTT to each of the NHEKs in LEMs for 3h, after 24 hours exposure to the test articles (compounds II, III, and DMSO (negative control)). The precipitated blue formazan product was extracted from the cells within 2 hours with 0.5 mL isopropanol per well. The concentration of formazan was measured by determining the OD at 570 nm using a Tecan Infinite F50 microplate reader.
# [4] = concentration of 10-100 μM, FIG. 8C
inhibitory effect to the tyrosinase activity (tyrosinase),IC50 [2],SMILES,cytotoxicity to the B16-F10 murine melanoma cells [1],cell viability [1],melanin content in the melanoma cells [2],inhibitory activity of melanogenesis [2],cytotoxicity to the NHEKs in the Leiden epidermal models [3],cell viability ([3]; 10 μM),cell viability ([3]; 100 μM),"cell viability [3, 4]",cell growth ([1]; at a concentration of 100 μM),cell viability ([3]; 50 μM)
do not show obvious inhibitory effect,31.1 ± 6.8 µM,"CCCC[C@@H]1OC(=O)C2=CCCC[C@H]21 [compound II, Neocnidilide]",did not have cytotoxicity,did not affect the cell viability,can decrease the melanin content,have inhibitory activity of melanogenesis,did not have cytotoxicity,97%,92%,did not affect the cell viability,,
do not show obvious inhibitory effect,78.9 ± 8.1 µM,C=CC(c1ccc(O)c(OC)c1)c1cc(/C=C/C(=O)O)cc(OC)c1O (stereo not drawn) [compound III],did not have cytotoxicity,,can decrease the melanin content,have inhibitory activity of melanogenesis,did not have cytotoxicity,98%,106%,did not affect the cell viability,slight tendency to inhibit cell growth,104%
do not show obvious inhibitory effect,100 ± 12.9 µM,"CCCC[C@@H]1OC(=O)[C@H]2CCCC[C@@H]12 [compound I, 3-Butylhexahydrophthalide]",did not have cytotoxicity,did not affect the cell viability,can decrease the melanin content,have inhibitory activity of melanogenesis,,,,,,
